The text below walks through data of US20150307491A1, “SUBSTITUTED PYRIDOPYRAZINES AS SYK INHIBITORS” (HUTCHISON MEDIPHARMA LIMITED, priority 2012, published 2015).

Assay [1] deals with T1, Recombinant human KDR (VEGFR-2) (Homo sapiens, UniProt P35968).
T1 construct: purchased Invitrogen PV3660
In words: Transcreener kinase assay of VEGFR-2 (KDR). Particulars: Poly E4Y substrate. The assay is classed as biochemical. The protocol:
Transcreener kinase assay of VEGFR-2 (KDR)
1. Solution preparation • 1) Transcreenen™ KINASE Assy kit: Bellbrook Labs, 3003-10 K; • 2) Recombinant human KDR: Invitrogen, PV3660; • 3) Poly E4Y (substrate): Sigma, P0275; 5 mg/mL, dissolved in MilliQ water; • 4) Assay buffer: 67 mM HEPES, 0.013% Triton X-100, 27 mM MgCl2, 0.67 mM MnCl2 1.25 mM DTT, PH 7.4; • 5) 10 mM ATP: Invitrogen, PV3227; • 6) 500 mM EDTA: Invitrogen, 15575-038; • 7) 96 well black Greiner plate: Greiner, 675076.
2. Prepare solution • 1) Dilute the compound to 5 folds of final concentrations, keeping the DMSO concentration at 5%. The final concentrations are 1, 0.33, 0.11, 0.037, 0.012, 0.004, 0.0014, 0.0005 μM; and the final concentration of DMSO is 1%. • 2) Prepare Enzyme/Substrate stock, Recombinant human KDR and Poly E4Y are both diluted in assay buffer. The final concentration is KDR (0.3 ng/μL), Poly E4Y (62.5 ng/μL). The mixture is keeping on ice surface before use; • 3) Prepare ATP Diluents, 10 mM ATP is diluted in assay buffer, the final concentration is 25 μM; • 4) Prepare ADP Diluents: diluted ADP (500 μM) in assay buffer, the final concentration is 25 μM; • 5) Prepare ATP standard curve stock as following:
3. Enzymatic reaction • 1) Add 5 μL of compound or control. (positive control, 5 μL of 5% DMSO; negative control, 5 μL of 500 mM EDTA); • 2) Add 10 μL of Enzyme/Substrate stock; • 3) Add 10 μL of ATP Diluents to begin the enzyme reaction and mix on plate shaker; • 4) Add 5 μL 5% DMSO, 10 μL of assay buffer and 10 μL of ATP standard curve stock into standard curve wells; • 5) Incubate at 28° C. for 45 min, keeping plate in gently shaking.
4. Stop reaction and detect ADP • 1) Prepare Detection Mix: diluted ADP Alexa633 tracer (1:100), ADP antibody (1:158), and stop & detect buffer (1:10) by MilliQ water; • 2) Prepare Tracer Only control: diluted ADP Alexa633 tracer (1:100) and stop & detect buffer (1:10) by MilliQ water; • 3) Prepare No Tracer control: diluted stop & detect buffer (1:10) by MilliQ water; • 4) Add 25 μL of detection mix, Tracer Only control and No Tracer control into corresponding wells, respectively; • 5) Incubate at 28° C. for 1 h, keeping plate in gently shaking; • 6) Measure florescence polarization (FP) on TECAN F500. Excitation wavelength: 610 nm, Emission wavelength: 670 nm.
Wherein: • 1) Compound well [ADP] represents the ADP concentration of compound well. • 2) Positive control well [ADP] represents the ADP concentration of 5% DMSO well • 3) Conversion of mP value to ADP concentration based on the formula which determined by standard curve.
IC50: calculated using XL-Fit 2.0 software.

Another assay relates to RBL-2H3 cells. The assay can be described thus: IgE-induced Beta-hexosaminidase secretion in RBL-2H3 cells. It is filed as cell-based. Particulars: Rattus norvegicus; RBL-2H3 cells sensitized with SPE-7, stimulated with DNP-BSA. Here is the method:
For the determination of IgE-induced Beta-hexosaminidase secretion, RBL-2H3 cells (SIBS) are seeded in 96 well plates at 4×10^4 cells per well and incubated in MEM media with 15% FBS and Glutamine ([…]) for 4 hours and sensitized with 0.5 ug/ml of SPE-7 overnight. Cells are washed 3 times with Tyrode's buffer and incubated in the presence or absence of various concentrations of the testing compound for 20 min at 37° C., 5% CO2. Cells are stimulated by adding 10 μL of DNP-BSA solution (150 ng/mL) to each well and incubating for 45 minutes at 37° C., 5% CO2. Then, 45 μL of the supernatant is taken and incubated with 100 μL of 1 mM 4-Nitrophenyl N-acetyl-β-D-glucosaminide (Sigma, Cat. No. N9376), which is diluted in 0.05 M citrate buffer (pH 4.5), for 1.5 hr at 37° C. The reactions are quenched by adding 185 μL of 0.05 M sodium carbonate buffer (pH 10.0). Plates are read at 405 nm on Multiskan (MK 3).

Another assay has as its target T2, Flt3 kinase (Homo sapiens, UniProt P36888).
T2 construct: purchased Invitrogen PV3182
T2 sequence (P36888 564-993 limits assumed): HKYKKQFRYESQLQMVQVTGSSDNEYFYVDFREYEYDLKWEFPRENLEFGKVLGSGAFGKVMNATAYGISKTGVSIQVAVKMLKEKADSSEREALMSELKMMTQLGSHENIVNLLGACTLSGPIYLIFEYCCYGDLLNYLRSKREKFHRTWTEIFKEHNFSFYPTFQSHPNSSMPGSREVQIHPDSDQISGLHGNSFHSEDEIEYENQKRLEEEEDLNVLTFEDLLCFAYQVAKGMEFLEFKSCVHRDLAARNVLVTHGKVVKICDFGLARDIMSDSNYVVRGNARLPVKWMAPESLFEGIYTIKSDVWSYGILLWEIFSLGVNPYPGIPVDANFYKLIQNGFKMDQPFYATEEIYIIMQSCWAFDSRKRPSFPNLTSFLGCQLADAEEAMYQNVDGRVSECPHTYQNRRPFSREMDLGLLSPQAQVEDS
The assay can be described thus: Z-lyte kinase assay of Flt-3. It is filed as biochemical. The settings on record: Z-LYTE Tyr 2 peptide; final concentrations 3 to 0.0014 μM. The protocol: Z-lyte kinase assay of Flt-3:
Dilute 5× Kinase Buffer to 1,33× with ddH2O
Serially dilute the test compounds to 4 folds of the concentrations desired, keeping the DMSO concentration at 8%. The final concentrations were 3, 1, 0.33, 0.11, 0.037, 0.012, 0.004, 0.0014 μM, and the final concentration of DMSO was 2%,
Prepare Kinase/Peptide Mixture by diluting the kinase to 0.12 μg/mL and the Z-LYTE™ Tyr 2 peptide to 4 μM in 1.33× Kinase Buffer. Mix gently by pipetting. 4) Phcspho-peptide Solution (PP solution)
Add 0.4 μL of Z-LYTE™ Tyr 2 Phospho-peptide to 99.6 μL of 1.33× Kinase Buffer.
Prepare ATP Solution by diluting the 10 mM of ATP in 1.33× Kinase Buffer to 1.88 mM.
Dilute Development Reagent A with Development Buffer as 1:64.
1) Kinase reaction (10 μL of Volume) • a. Add 2.5 μL of 4× test Cpds to each well except C1, C2, C3 wells
Add 2.5 μL of 8% DMSO to C1, C2, C3 wells • b. Put the 384-plate on ice • c. Add 5 μL of P/K mixture to each test Cpd wells and C1, C2 wells • d. Add 5 μL of PP Solution to C3 well • e. Add 2.5 μL of 1,33× kinase buffer to C1 and C3 wells • f. Add 2.5 μL of 4×ATP Solution to each test Cpd wells and C2 well, respectively.
Shake the plate for 30 Sec and centrifuge (1500 rpm, 1 min) • g. Seal the plate to protect from the light and incubate the plate for 1 hour at RT (25-30° C.) 2) Development reaction • a. Add 5 μL of the Development solution to all wells • b. Shake the plate for 30 Sec and centrifuge (1500 rpm, 1 min) • c. Seal the plate to protect from the light and incubate the plate for 1 hour at RT (25-30° C.) 3) Stop and read • a. Add 5 μL of the Stop reagent to all wells • b. Shake the plate for 30 Sec and centrifuge (1500 rpm, 1 min) • c. Measure the value of Coumarin (Ex400 nm, Em445 nm) and fluorescein (Ex400 nm, Em520 nm), respectively. 4. Data analysis
Emission Ratio (ER) Coumarin Emission (445 nm)/Fluorescein Emission (520 nm)
inhibition ratio (IR)=1−% Photest Cpd/% PhoC2%
IC50 Value: determined with add-in software for Microsoft Excel, XLfit™ (version 2.0) from ID Business Solutions (Guildford: UK)

A value given as a limit tells only on which side of the number the result lay.

T1 sequence (P35968 789-1356 limits assumed): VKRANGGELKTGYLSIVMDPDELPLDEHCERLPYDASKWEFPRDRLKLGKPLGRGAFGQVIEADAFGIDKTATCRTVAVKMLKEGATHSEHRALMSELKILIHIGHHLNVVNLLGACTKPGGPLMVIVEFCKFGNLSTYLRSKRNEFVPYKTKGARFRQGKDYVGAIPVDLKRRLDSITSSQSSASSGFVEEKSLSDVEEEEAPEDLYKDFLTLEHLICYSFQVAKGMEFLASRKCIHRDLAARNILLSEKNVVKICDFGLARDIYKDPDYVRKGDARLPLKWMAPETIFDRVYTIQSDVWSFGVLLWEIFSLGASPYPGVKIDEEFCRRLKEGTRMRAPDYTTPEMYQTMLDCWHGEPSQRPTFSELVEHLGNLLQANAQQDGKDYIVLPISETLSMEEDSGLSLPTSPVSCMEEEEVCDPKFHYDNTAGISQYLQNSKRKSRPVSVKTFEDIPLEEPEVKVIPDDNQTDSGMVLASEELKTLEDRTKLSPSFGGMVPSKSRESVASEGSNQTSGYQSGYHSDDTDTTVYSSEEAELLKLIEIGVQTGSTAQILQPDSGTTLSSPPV

In the case of `CS(=O)(=O)N1CCN(c2ccc(-c3cc4nccnc4c(OC[C@@H]4CN(S(C)(=O)=O)CCO4)n3)cc2)CC1` [Compound 26], the values for the IC50 (in assay [1]; in the assay on RBL-2H3 cells) were 1.6 µM and 0.1 to 1 µM, respectively.

In the case of `CC(=O)N1CCC(c2ccc(-c3cc4nccnc4c(OC[C@@H]4CN(S(C)(=O)=O)CCO4)n3)cc2)CC1` [Compound 33], the IC50 in assay [1] was 1.33 µM; in the assay on RBL-2H3 cells, 0.001 to 0.1 µM.

Take `COc1ccc(-c2cc3nccnc3c(OC[C@@H]3CN(S(C)(=O)=O)CCO3)n2)cc1OC` [Compound 43]: the IC50 in assay [1] was more than 3 µM; on Flt3 kinase, 1.6 µM; in the assay with RBL-2H3 cells, 0.001 to 0.1 µM.

For the molecule `CN(C)c1ccc(-c2cc3nccnc3c(OC[C@@H]3CN(S(C)(=O)=O)CCO3)n2)cc1F` [Compound 53], the IC50 in assay [1] was 2.96 µM; in the assay with RBL-2H3 cells it was 0.001 to 0.1 µM.

In the case of `CS(=O)(=O)N1CCC(c2ccc(-c3cc4nccnc4c(OC[C@@H]4CN(S(C)(=O)=O)CCO4)n3)cc2)CC1` [Compound 57, (S)-4-(methylsulfonyl)-2-((7-(4-(1-(methylsulfonyl)piperidin-4-yl)phenyl)pyrido[4,3,-b]pyrazin-5-yloxy)methyl)morpholine], the IC50 in assay [1] is 1.56 µM; against Flt3 kinase it was 1.64 µM; with RBL-2H3 cells, 0.001 to 0.1 µM.

`CN(C)c1ccc(-c2cc3nccnc3c(OC[C@@H]3CN(S(C)(=O)=O)CCO3)n2)cc1Cl` [Compound 108]: the figures for the IC50 (in assay [1]; at Flt3 kinase; in the assay with RBL-2H3 cells) were more than 3 µM, 2.42 µM and 0.001 to 0.1 µM, respectively.

For orientation: IC50 means the point on the concentration scale where inhibition reaches its midpoint.
